US20120115903A1, “Substituted Heteroaromatic Carboxamide and Urea Compounds as Vanilloid Receptor Ligands” (Gruenenthal GmbH, priority 2010, published 2012)

What was measured:
[1] = target: T1, vanilloid receptor 1 (VR1/TRPV1 receptor) (Mus musculus, UniProt Q704Y3); assay: FLIPR Ca2+ influx assay on vanilloid receptor 1, capsaicin stimulus (mouse); type: cell-based; details: Cap = capsaicin, Ki from IC50 by Cheng-Prusoff
T1 construct: expressed in transfected cells; host or cells: CHO K1 cells (inferred: method II; method I is described for rat DRG neurons only)
T1 sequence (Q704Y3 whole entry): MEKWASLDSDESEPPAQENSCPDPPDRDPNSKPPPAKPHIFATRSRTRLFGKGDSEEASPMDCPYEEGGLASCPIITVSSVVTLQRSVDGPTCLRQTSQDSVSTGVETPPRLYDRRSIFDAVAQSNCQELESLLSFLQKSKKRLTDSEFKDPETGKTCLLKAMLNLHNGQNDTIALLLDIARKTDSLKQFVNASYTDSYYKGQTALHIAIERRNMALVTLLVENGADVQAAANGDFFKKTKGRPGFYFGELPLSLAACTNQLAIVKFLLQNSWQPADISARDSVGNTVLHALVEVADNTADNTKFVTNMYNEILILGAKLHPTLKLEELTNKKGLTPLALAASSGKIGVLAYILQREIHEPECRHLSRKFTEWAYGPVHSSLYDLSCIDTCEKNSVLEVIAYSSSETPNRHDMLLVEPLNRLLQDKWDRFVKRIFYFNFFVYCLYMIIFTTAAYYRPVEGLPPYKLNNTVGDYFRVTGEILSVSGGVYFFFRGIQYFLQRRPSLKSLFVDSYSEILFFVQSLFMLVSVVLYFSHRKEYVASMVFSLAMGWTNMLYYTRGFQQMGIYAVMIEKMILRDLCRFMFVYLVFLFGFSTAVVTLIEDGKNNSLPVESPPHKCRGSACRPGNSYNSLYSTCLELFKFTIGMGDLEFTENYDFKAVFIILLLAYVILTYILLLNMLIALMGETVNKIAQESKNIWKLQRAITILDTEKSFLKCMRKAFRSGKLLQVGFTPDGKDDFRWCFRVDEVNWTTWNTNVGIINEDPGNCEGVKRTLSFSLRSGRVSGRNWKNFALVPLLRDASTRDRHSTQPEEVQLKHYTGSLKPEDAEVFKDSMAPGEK
Excerpt: The agonistic or antagonistic effect of the substances to be tested on the vanilloid receptor 1 (VR1) can also be determined using the following assay. In this assay, the influx of Ca^2+ through the channel is quantified with the aid of a Ca^2+-sensitive dye (type Fluo-4, Molecular Probes Europe BV, Leiden, the Netherlands) in a fluorescent imaging plate reader (FLIPR, Molecular Devices, Sunnyvale, USA).
Chinese hamster ovary cells (CHO K1 cells, European Collection of Cell Cultures (ECACC) United Kingdom) are stably transfected with the VR1 gene. […] The Ca^2+-dependent fluorescence is measured before and after the addition of the substances to be tested (λex wavelength=488 nm, λem=540 nm). Quantification is carried out by measuring the highest fluorescence intensity (FC, fluorescence counts) over time.
The FLIPR protocol consists of 2 substance additions. […] After 5 minutes' incubation, 100 nM of capsaicin are applied and the Ca^2+ influx is also determined. […]
Starting from the percentage displacement caused by different concentrations of the compounds to be tested of general formula I, IC50 inhibitory concentrations which cause a 50-percent displacement of capsaicin were calculated. […]
The affinity of the compounds according to the invention for the vanilloid receptor 1 (VR1/TRPV1 receptor) was determined as described hereinbefore (pharmacological methods I and II respectively). […]

[2] = target: T2, vanilloid receptor 1 (VR1/TRPV1 receptor) (Homo sapiens, UniProt Q8NER1); assay: FLIPR Ca2+ influx assay with CHO K1 cells transfected with the human VR1 gene, capsaicin stimulus; type: cell-based; details: Cap = capsaicin (100 nM), Ki from IC50 by Cheng-Prusoff, read-out: Ki (human being) [nM] Cap
T2 construct: expressed in transfected cells; host or cells: CHO K1 cells (ECACC), stably transfected
T2 sequence (Q8NER1 whole entry): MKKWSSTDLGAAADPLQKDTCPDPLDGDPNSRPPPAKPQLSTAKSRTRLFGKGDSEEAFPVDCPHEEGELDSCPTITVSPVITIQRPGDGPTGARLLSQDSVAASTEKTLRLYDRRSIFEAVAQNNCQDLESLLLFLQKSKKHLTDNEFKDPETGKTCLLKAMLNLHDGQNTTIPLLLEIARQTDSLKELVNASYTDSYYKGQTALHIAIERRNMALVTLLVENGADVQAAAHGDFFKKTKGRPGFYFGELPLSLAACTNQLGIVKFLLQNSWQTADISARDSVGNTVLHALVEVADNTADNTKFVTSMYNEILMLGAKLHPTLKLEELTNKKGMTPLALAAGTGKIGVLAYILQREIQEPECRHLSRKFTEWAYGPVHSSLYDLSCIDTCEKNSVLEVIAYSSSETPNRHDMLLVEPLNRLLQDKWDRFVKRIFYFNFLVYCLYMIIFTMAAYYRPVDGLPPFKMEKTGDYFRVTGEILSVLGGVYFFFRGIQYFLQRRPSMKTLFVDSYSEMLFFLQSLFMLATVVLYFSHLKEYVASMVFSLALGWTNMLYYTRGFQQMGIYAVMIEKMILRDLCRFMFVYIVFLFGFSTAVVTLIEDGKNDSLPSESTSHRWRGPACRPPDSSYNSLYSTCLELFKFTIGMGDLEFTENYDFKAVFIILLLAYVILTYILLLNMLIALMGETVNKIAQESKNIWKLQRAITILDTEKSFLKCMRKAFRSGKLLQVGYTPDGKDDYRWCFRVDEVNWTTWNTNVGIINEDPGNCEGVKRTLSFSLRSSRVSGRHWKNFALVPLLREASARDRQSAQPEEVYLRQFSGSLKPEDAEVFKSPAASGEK
Method: Furthermore, preference may be given to compounds according to the invention of general formula (I) that cause a 50 percent displacement of capsaicin, which is present at a concentration of 100 nM, in a FLIPR assay with CHO K1 cells which were transfected with the human VR1 gene at a concentration of less than 2,000 nM, preferably less than 1,000 nM, particularly preferably less than 300 nM, most particularly preferably less than 100 nM, even more preferably less than 75 nM, additionally preferably less than 50 nM, most preferably less than 10 nM. In the process, the Ca^2+ influx is quantified in the FLIPR assay with the aid of a Ca^2+-sensitive dye (type Fluo-4, Molecular Probes Europe BV, Leiden, the Netherlands) in a fluorescent imaging plate reader (FLIPR, Molecular Devices, Sunnyvale, USA), as described hereinafter. The agonistic or antagonistic effect of the substances to be tested on the vanilloid receptor 1 (VR1) can also be determined using the following assay. In this assay, the influx of Ca^2+ through the channel is quantified with the aid of a Ca^2+-sensitive dye (type Fluo-4, Molecular Probes Europe BV, Leiden, the Netherlands) in a fluorescent imaging plate reader (FLIPR, Molecular Devices, Sunnyvale, USA). Chinese hamster ovary cells (CHO K1 cells, European Collection of Cell Cultures (ECACC) United Kingdom) are stably transfected with the VR1 gene. For functional testing, these cells are plated out on poly-D-lysine-coated black 96-well plates having a clear base (BD Biosciences, Heidelberg, Germany) at a density of 25,000 cells/well. The cells are incubated overnight at 37° C. and 5% CO2 in a culture medium (Ham's F12 nutrient mixture, 10% by volume of FCS (foetal calf serum), 18 μg/ml of L-proline). The next day the cells are incubated with Fluo-4 (Fluo-4 2 μM, 0.01% by volume of Pluronic F127, Molecular Probes in HBSS (Hank's buffered saline solution), Gibco Invitrogen GmbH, Karlsruhe, Germany) for 30 minutes at 37° C. Subsequently, the plates are washed three times with HBSS buffer and after further incubation for 15 minutes at RT used for Ca^2+ measurement in a FLIPR assay. The Ca^2+-dependent fluorescence is measured before and after the addition of the substances to be tested (λex wavelength=488 nm, λem=540 nm). Quantification is carried out by measuring the highest fluorescence intensity (FC, fluorescence counts) over time. The FLIPR protocol consists of 2 substance additions. First the compounds to be tested (10 μM) are pipetted onto the cells and the Ca^2+ influx is compared with the control (capsaicin 10 μM) (% activation based on the Ca^2+ signal after the addition of 10 μM of capsaicin). After 5 minutes' incubation, 100 nM of capsaicin are applied and the Ca^2+ influx is also determined. Desensitising agonists and antagonists led to suppression of the Ca^2+ influx. The % inhibition is calculated compared to the maximum achievable inhibition with 10 μM of capsaicin. Starting from the percentage displacement caused by different concentrations of the compounds to be tested of general formula I, IC50 inhibitory concentrations which cause a 50-percent displacement of capsaicin were calculated. K, values for the test substances were obtained by conversion by means of the Cheng-Prusoff equation (Cheng, Prusoff; Biochem. Pharmacol. 22, 3099-3108, 1973). The affinity of the compounds according to the invention for the vanilloid receptor 1 (VR1/TRPV1 receptor) was determined as described hereinbefore (pharmacological methods I and II respectively). The compounds according to the invention of the above-indicated formula (I) display outstanding affinity to the VR1/TRPV1 receptor (Table 1.).

Ki [1]: 4.8 nM
Ki [2]: 0.4 nM
Structure (SMILES): CC(C(=O)NCc1cc(C(F)(F)F)nn1-c1cccc(Cl)c1)c1cn(C)c2ccc(O)cc12 (centres unmarked) [Example 10, N-((1-(3-chlorophenyl)-3-(trifluoromethyl)-1H-pyrazol-5-yl)methyl)-2-(5-hydroxy-1-methyl-1H-indol-3-yl)propanamide]
